Columns and labels:
[1] = Particle size of mirdametinib drug substance lots (laser diffraction particle sizing); format: physicochemical; details: mirdametinib free base drug substance
Source text: As used herein, “D50” or “d50”, also known as the median diameter, corresponds to the value under which 50% of the particles has a lower volume diameter. “D90” or “d90” corresponds to the value under which 90% of the particles has a lower volume diameter. The particle size may be measured using wet standard laser diffraction particle sizing techniques known in the art. One example of an instrument to measure the particle size of the dry powders is the Mastersizer 3000, manufactured by Malvern Panalytical Ltd. (Malvern, UK). As particles are often non-spherical, it is difficult and complex to provide dimensional descriptions of these non-spherical particles. As used herein, “volume diameter” refers to diameter of a sphere with equal volume of the non-spherical particle.
(§1) Mirdametinib free base (Lots #1, 2, and 3) having the properties in the table below were prepared.

[2] = Bulk and tap density, Carr's Index of drug substance lots; format: physicochemical; details: mirdametinib free base drug substance
Procedure: as §1

Compound: O=C(NOC[C@H](O)CO)c1ccc(F)c(F)c1Nc1ccc(I)cc1F [Lot 2, N—((R)-2,3-dihydroxypropoxy)-3,4-difluoro-2-(2-fluoro-4-iodo-phenylamino)benzamide]
- D10 [1]: 7.6 μm
- D50 [1]: 28.4 μm
- D90 [1]: 120.7 μm
- Bulk density [2]: 0.197 g/mL
- Carr's Index [2]: 54.6
- Tap density [2]: 0.434 g/mL

Compound: O=C(NOC[C@H](O)CO)c1ccc(F)c(F)c1Nc1ccc(I)cc1F [Lot 3, N—((R)-2,3-dihydroxypropoxy)-3,4-difluoro-2-(2-fluoro-4-iodo-phenylamino)benzamide]
- D10 [1]: 17.8 μm
- D50 [1]: 46.5 μm
- D90 [1]: 217.1 μm

Compound: O=C(NOC[C@H](O)CO)c1ccc(F)c(F)c1Nc1ccc(I)cc1F [Lot 1, N—((R)-2,3-dihydroxypropoxy)-3,4-difluoro-2-(2-fluoro-4-iodo-phenylamino)benzamide]
- D10 [1]: 4.9 μm
- D50 [1]: 20.9 μm
- D90 [1]: 101.5 μm
- Bulk density [2]: 0.169 g/mL
- Carr's Index [2]: 57.1
- Tap density [2]: 0.394 g/mL

From patent US20240307326A1, “DOSAGE FORMS OF MIRDAMETINIB” (SpringWorks Therapeutics, Inc., priority 2023, published 2024)
